Test results taken from US20220323406A1, “METHODS AND COMPOSITIONS FOR DIFFERENTIATING STEM CELLS” (Massachusetts Institute of Technology, priority 2019, published 2022).
Structures can show the parent of a compound that is named as a salt.

How the values were obtained:
[1] = tested on: ENR+CD organoids (ISC to Paneth cell differentiation); experiment: Primary screen: CCh-stimulated lysozyme secretion LYZ.S, 2.5-D 384-well ENR+CD organoid differentiation; assay type: cell-based, mouse; conditions: primary screen
Source text: (§1) High-throughput screening.

ENR+CD organoids = experiment: Primary screen: ATP (CellTiter-Glo 3D, CTG) cell number/viability, 2.5-D 384-well ENR+CD organoids;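 note: compounds given at plating and again on day 3 over a 6-day differentiation from ENR+CV stem-cell-enriched precursors, ATP measured on day 6, plate median as control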
[2] = tested on: ENR+CD organoids (ISC to Paneth cell differentiation); experiment: Primary screen: basal (non-stimulated) lysozyme secretion LYZ.NS, 2.5-D 384-well ENR+CD organoid differentiation; assay type: cell-based, mouse
Source text: as §1

[3] = primary screen, dose 0.08 uM, FC relative to plate median
[4] = primary screen, dose 0.08 uM, standard z score
[5] = primary screen, dose 0.40 uM, FC relative to plate median
[6] = primary screen, dose 0.40 uM, standard z score
[7] = primary screen, dose 2.00 uM, FC relative to plate median
[8] = primary screen, dose 2.00 uM, standard z score
[9] = primary screen, dose 10.00 uM, FC relative to plate median
[10] = primary screen, dose 10.00 uM, standard z score
[11] = dose 0.08 uM, FC vs plate median
[12] = dose 0.40 uM, FC vs plate median
[13] = dose 2.00 uM, FC vs plate median
[14] = dose 10.00 uM, FC vs plate median
[15] = primary screen; dose 0.08 uM; FC vs plate median
[16] = primary screen; dose 0.40 uM; FC vs plate median
[17] = primary screen; dose 2.00 uM; FC vs plate median
[18] = primary screen; dose 10.00 uM; FC vs plate median
[19] = primary screen, standard z score, dose 0.08 uM
[20] = primary screen, standard z score, dose 0.40 uM
[21] = primary screen, standard z score, dose 2.00 uM
[22] = primary screen, standard z score, dose 10.00 uM

| Molecule | Dose.FC.LYZ.S ([1]; dose 0.08 uM) | Dose.FC.LYZ.S ([1]; dose 0.40 uM) | Dose.FC.LYZ.S ([1]; dose 2.00 uM) | Dose.FC.LYZ.S ([1]; dose 10.00 uM) | Dose.FC.CTG (ENR+CD organoids; primary screen, dose 0.08 uM) | Dose.FC.CTG (ENR+CD organoids; primary screen, dose 0.40 uM) | Dose.FC.CTG (ENR+CD organoids; primary screen, dose 2.00 uM) | Dose.FC.CTG (ENR+CD organoids; primary screen, dose 10.00 uM) | Dose.FC.LYZ.NS ([2]; primary screen, dose 0.08 uM) | Z.LYZ.NS (standard z score) ([2]; primary screen, dose 0.08 uM) | Dose.FC.LYZ.NS ([2]; primary screen, dose 0.40 uM) | Z.LYZ.NS (standard z score) ([2]; primary screen, dose 0.40 uM) | Dose.FC.LYZ.NS ([2]; primary screen, dose 2.00 uM) | Z.LYZ.NS (standard z score) ([2]; primary screen, dose 2.00 uM) | Dose.FC.LYZ.NS ([2]; primary screen, dose 10.00 uM) | Z.LYZ.NS (standard z score) ([2]; primary screen, dose 10.00 uM) | Z.CTG (standard z score) (ENR+CD organoids; primary screen, dose 0.08 uM) | Z.CTG (standard z score) (ENR+CD organoids; primary screen, dose 0.40 uM) | Z.CTG (standard z score) (ENR+CD organoids; primary screen, dose 2.00 uM) | Z.CTG (standard z score) (ENR+CD organoids; primary screen, dose 10.00 uM) | also measured |
| --- | --- | --- | --- | --- | --- | --- | --- | --- | --- | --- | --- | --- | --- | --- | --- | --- | --- | --- | --- | --- | --- |
| O=C(Nc1ccccc1Br)N[C@@H]1CCN(c2ccc(C(F)(F)F)cn2)C1 [SB705498] | – | – | – | – | – | – | – | – | – | – | – | – | – | – | – | – | – | – | – | – | Dose.FC.LYZ.S ([1]; dose 0.08 uM, FC relative to plate median): 0.094 log2 fold change; Dose.FC.LYZ.S ([1]; dose 0.40 uM, FC relative to plate median): 0.023 log2 fold change; Dose.FC.LYZ.S ([1]; dose 2.00 uM, FC relative to plate median): −0.030 log2 fold change; Dose.FC.LYZ.S ([1]; dose 10.00 uM, FC relative to plate median): −0.023 log2 fold change; Dose.FC.CTG (ENR+CD organoids; [3]): 0.133 log2 fold change; Z.CTG (ENR+CD organoids; [4]): 0.318; Dose.FC.CTG (ENR+CD organoids; [5]): −0.043 log2 fold change; Z.CTG (ENR+CD organoids; [6]): −0.102; Dose.FC.CTG (ENR+CD organoids; [7]): −0.004 log2 fold change; Z.CTG (ENR+CD organoids; [8]): −0.009; Dose.FC.CTG (ENR+CD organoids; [9]): −0.037 log2 fold change; Z.CTG (ENR+CD organoids; [10]): −0.089; Dose.FC.LYZ.NS [2, 3]: 0.074 log2 fold change; Z.LYZ.NS [2, 4]: 0.642; Dose.FC.LYZ.NS [2, 5]: −0.050 log2 fold change; Z.LYZ.NS [2, 6]: −0.433; Dose.FC.LYZ.NS [2, 7]: −0.001 log2 fold change; Z.LYZ.NS [2, 8]: −0.008; Dose.FC.LYZ.NS [2, 9]: −0.018 log2 fold change; Z.LYZ.NS [2, 10]: −0.154 |
| CN(C)CCOc1ccc(/C(=C(/CCCl)c2ccccc2)c2ccccc2)cc1 [Toremifene Citrate] | 0.078 log2 fold change | 0.229 log2 fold change | −0.034 log2 fold change | −0.283 log2 fold change | 0.344 log2 fold change | 0.119 log2 fold change | −1.012 log2 fold change | −1.396 log2 fold change | 0.051 log2 fold change | 0.446 | 0.060 log2 fold change | 0.522 | 0.030 log2 fold change | 0.258 | −0.198 log2 fold change | −1.721 | – | – | – | – | – |
| c1ccc(NCc2ccc(CNc3ccccn3)cc2)nc1 [WZ811] | 0.296 log2 fold change | 0.007 log2 fold change | 0.074 log2 fold change | 0.019 log2 fold change | 0.140 log2 fold change | −0.034 log2 fold change | 0.077 log2 fold change | 0.044 log2 fold change | 0.154 log2 fold change | 1.337 | 0.019 log2 fold change | 0.162 | 0.094 log2 fold change | 0.815 | 0.005 log2 fold change | 0.045 | 0.334 | −0.082 | 0.184 | 0.104 | – |
| CCNC(=O)c1noc(-c2cc(C(C)C)c(O)cc2O)c1-c1ccc(CN2CCOCC2)cc1 [AUY922 (NVP-AUY922)] | −0.209 log2 fold change | −0.184 log2 fold change | −0.216 log2 fold change | −0.214 log2 fold change | −1.185 log2 fold change | −1.343 log2 fold change | −1.137 log2 fold change | −1.270 log2 fold change | −0.144 log2 fold change | −1.251 | −0.154 log2 fold change | −1.343 | −0.138 log2 fold change | −1.200 | −0.153 log2 fold change | −1.330 | −2.830 | −3.208 | −2.715 | −3.032 | – |
| HA14-1 | – | – | – | – | – | – | – | – | – | 1.052 | – | 1.195 | – | 1.345 | – | 1.151 | 1.276 | 1.255 | 1.323 | 0.926 | Dose.FC.LYZ.S (log2 fold change) ([1]; dose 0.08 uM): 0.190; Dose.FC.LYZ.S (log2 fold change) ([1]; dose 0.40 uM): 0.316; Dose.FC.LYZ.S (log2 fold change) ([1]; dose 2.00 uM): 0.170; Dose.FC.LYZ.S (log2 fold change) ([1]; dose 10.00 uM): 0.149; Dose.FC.CTG (log2 fold change) (ENR+CD organoids; primary screen, dose 0.08 uM): 0.534; Dose.FC.CTG (log2 fold change) (ENR+CD organoids; primary screen, dose 0.40 uM): 0.526; Dose.FC.CTG (log2 fold change) (ENR+CD organoids; primary screen, dose 2.00 uM): 0.554; Dose.FC.CTG (log2 fold change) (ENR+CD organoids; primary screen, dose 10.00 uM): 0.388; Dose.FC.LYZ.NS (log2 fold change) ([2]; primary screen, dose 0.08 uM): 0.121; Dose.FC.LYZ.NS (log2 fold change) ([2]; primary screen, dose 0.40 uM): 0.137; Dose.FC.LYZ.NS (log2 fold change) ([2]; primary screen, dose 2.00 uM): 0.154; Dose.FC.LYZ.NS (log2 fold change) ([2]; primary screen, dose 10.00 uM): 0.132 |
| Cc1ccc(NC(=O)C2(c3ccc4c(c3)OC(F)(F)O4)CC2)nc1-c1cccc(C(=O)O)c1 [VX-809 (Lumacaftor)] | 0.218 log2 fold change | −0.027 log2 fold change | −0.073 log2 fold change | −0.117 log2 fold change | 0.177 log2 fold change | −0.062 log2 fold change | −0.145 log2 fold change | 0.032 log2 fold change | 0.073 log2 fold change | 0.634 | −0.041 log2 fold change | −0.353 | −0.032 log2 fold change | −0.279 | −0.082 log2 fold change | −0.713 | 0.423 | −0.149 | −0.346 | 0.076 | – |
| COc1ccccc1N1CCN(CC(O)COc2cccc3ccccc23)CC1 (stereo not drawn) [Naftopidil] | – | – | – | – | – | – | – | – | – | – | – | – | – | – | – | – | – | – | – | – | Dose.FC.LYZ.S [1, 11]: 0.015 log2 fold change; Dose.FC.LYZ.S [1, 12]: −0.128 log2 fold change; Dose.FC.LYZ.S [1, 13]: −0.097 log2 fold change; Dose.FC.LYZ.S [1, 14]: −0.079 log2 fold change; Dose.FC.CTG (ENR+CD organoids; [15]): −0.039 log2 fold change; Dose.FC.CTG (ENR+CD organoids; [16]): −0.161 log2 fold change; Dose.FC.CTG (ENR+CD organoids; [17]): −0.179 log2 fold change; Dose.FC.CTG (ENR+CD organoids; [18]): −0.132 log2 fold change; Z.LYZ.NS [2, 4]: −0.325; Z.LYZ.NS [2, 6]: −0.713; Z.LYZ.NS [2, 8]: −0.171; Z.LYZ.NS [2, 10]: −0.638; Dose.FC.LYZ.NS [2, 15]: −0.037 log2 fold change; Dose.FC.LYZ.NS [2, 16]: −0.082 log2 fold change; Dose.FC.LYZ.NS [2, 17]: −0.020 log2 fold change; Dose.FC.LYZ.NS [2, 18]: −0.073 log2 fold change |
| BAM7 | 0.079 log2 fold change | 0.039 log2 fold change | 0.019 log2 fold change | −0.020 log2 fold change | 0.209 log2 fold change | −0.010 log2 fold change | −0.156 log2 fold change | −0.114 log2 fold change | 0.045 log2 fold change | 0.391 | −0.009 log2 fold change | −0.082 | 0.057 log2 fold change | 0.498 | −0.007 log2 fold change | −0.063 | 0.498 | −0.024 | −0.373 | −0.272 | – |
| COc1cc(OC)c(NC(=O)Nc2cc(C)on2)cc1Cl [PNU-120596] | – | – | – | – | – | – | – | – | – | – | – | – | – | – | – | – | – | – | – | – | Dose.FC.LYZ.S [1, 11]: 0.058 log2 fold change; Dose.FC.LYZ.S [1, 12]: 0.081 log2 fold change; Dose.FC.LYZ.S [1, 13]: 0.065 log2 fold change; Dose.FC.LYZ.S [1, 14]: −0.049 log2 fold change; Z.CTG (ENR+CD organoids; [4]): −0.188; Z.CTG (ENR+CD organoids; [6]): 0.204; Z.CTG (ENR+CD organoids; [8]): 0.271; Z.CTG (ENR+CD organoids; [10]): 0.330; Dose.FC.CTG (ENR+CD organoids; [15]): −0.079 log2 fold change; Dose.FC.CTG (ENR+CD organoids; [16]): 0.085 log2 fold change; Dose.FC.CTG (ENR+CD organoids; [17]): 0.114 log2 fold change; Dose.FC.CTG (ENR+CD organoids; [18]): 0.138 log2 fold change; Z.LYZ.NS [2, 4]: 0.944; Z.LYZ.NS [2, 6]: −0.098; Z.LYZ.NS [2, 8]: 0.594; Z.LYZ.NS [2, 10]: −0.525; Dose.FC.LYZ.NS [2, 15]: 0.108 log2 fold change; Dose.FC.LYZ.NS [2, 16]: −0.011 log2 fold change; Dose.FC.LYZ.NS [2, 17]: 0.068 log2 fold change; Dose.FC.LYZ.NS [2, 18]: −0.060 log2 fold change |
| O=C(NC(NC(=S)Nc1ccc(F)c([N+](=O)[O-])c1)C(Cl)(Cl)Cl)C(c1ccccc1)c1ccccc1 (stereo not drawn) [CGK733] | 0.008 log2 fold change | −0.018 log2 fold change | −0.125 log2 fold change | −0.230 log2 fold change | −0.362 log2 fold change | −0.093 log2 fold change | −0.244 log2 fold change | −0.478 log2 fold change | 0.099 log2 fold change | – | −0.026 log2 fold change | – | −0.099 log2 fold change | – | −0.122 log2 fold change | – | – | – | – | – | Z.CTG (ENR+CD organoids; [19]): −0.864; Z.CTG (ENR+CD organoids; [20]): −0.221; Z.CTG (ENR+CD organoids; [21]): −0.582; Z.CTG (ENR+CD organoids; [22]): −1.143; Z.LYZ.NS [2, 19]: 0.863; Z.LYZ.NS [2, 20]: −0.222; Z.LYZ.NS [2, 21]: −0.865; Z.LYZ.NS [2, 22]: −1.063 |
